Reference: the supplement of paper PMC10307832

What was measured:
Test in all cases: relative viability (nuclei count vs DMSO), 5 days (fraction); higher = more cells survive
MLN4924 + Trametinib = compound: NS(=O)(=O)OC[C@@H]1C[C@@H](n2ccc3c(N[C@H]4CCc5ccccc54)ncnc32)C[C@@H]1O [MLN4924] + CC(=O)Nc1cccc(-n2c(=O)n(C3CC3)c(=O)c3c(Nc4ccc(I)cc4F)n(C)c(=O)c(C)c32)c1 [Trametinib] (partner 0.02 µM)
Summary of the method: (§1)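 Relative viability was taken as the ratio of nuclei in treated wells to nuclei in vehicle wells. Lung cancer cell lines in 1536-well plates received compounds by pin tool one day after seeding, either one drug alone or a fixed anchor-drug dose plus five library-drug doses (not always all listed) in √10 steps. Nuclei were counted on 4× images after 5 days of treatment, and values are medians of duplicate plates.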

Carboplatin + Luminespib = compound: C1CC(C1)(C(=O)O)C(=O)O.[NH2-].[NH2-].[Pt+2] [Carboplatin] + CCNC(=O)c1noc(-c2cc(C(C)C)c(O)cc2O)c1-c1ccc(CN2CCOCC2)cc1 [Luminespib] (partner 0.01 µM)
Summary of the method: as §1

Carboplatin + Pictilisib = compound: C1CC(C1)(C(=O)O)C(=O)O.[NH2-].[NH2-].[Pt+2] [Carboplatin] + CS(=O)(=O)N1CCN(Cc2cc3nc(-c4cccc5[nH]ncc45)nc(N4CCOCC4)c3s2)CC1 [Pictilisib] (partner 1 µM)
Summary of the method: as §1

Carboplatin + Bortezomib = compound: C1CC(C1)(C(=O)O)C(=O)O.[NH2-].[NH2-].[Pt+2] [Carboplatin] + CC(C)C[C@H](NC(=O)[C@H](Cc1ccccc1)NC(=O)c1cnccn1)B(O)O [Bortezomib] (partner 0.002 µM)
Summary of the method: as §1

For SK-MES-1, the relative viability (MLN4924 + Trametinib; first compound 0.04 µM) was 0.631, the relative viability (MLN4924 + Trametinib; first compound 0.1265 µM) was 0.676 and the relative viability (MLN4924 + Trametinib; first compound 0.4 µM) was 0.727. The relative viability (MLN4924 + Trametinib; first compound 1.265 µM) was 0.295, the relative viability (MLN4924 + Trametinib; first compound 4 µM) was 0.255 and the relative viability (Carboplatin + Luminespib; first compound 0.08 µM) was 0.891. The relative viability (Carboplatin + Luminespib; first compound 0.253 µM) was 0.763, the relative viability (Carboplatin + Luminespib; first compound 0.8 µM) was 0.714 and the relative viability (Carboplatin + Luminespib; first compound 2.53 µM) was 0.777. The relative viability (Carboplatin + Luminespib; first compound 8 µM) was 0.81, the relative viability (Carboplatin + Pictilisib; first compound 0.08 µM) was 0.402 and the relative viability (Carboplatin + Pictilisib; first compound 0.253 µM) was 0.272. For the same cell line, the relative viability (Carboplatin + Pictilisib; first compound 0.8 µM) was 0.358, the relative viability (Carboplatin + Pictilisib; first compound 2.53 µM) was 0.328 and the relative viability (Carboplatin + Pictilisib; first compound 8 µM) was 0.303.
For NCI-H1648, the relative viability (MLN4924 + Trametinib; first compound 0.04 µM) was 0.481, the relative viability (MLN4924 + Trametinib; first compound 0.1265 µM) was 0.353 and the relative viability (MLN4924 + Trametinib; first compound 0.4 µM) was 0.332. For the same cell line, the relative viability (MLN4924 + Trametinib; first compound 1.265 µM) was 0.314 and the relative viability (MLN4924 + Trametinib; first compound 4 µM) was 0.306.
For PC-14, the relative viability (MLN4924 + Trametinib; first compound 0.04 µM) was 1.01, the relative viability (MLN4924 + Trametinib; first compound 0.1265 µM) was 0.624 and the relative viability (MLN4924 + Trametinib; first compound 0.4 µM) was 0.259. The relative viability (MLN4924 + Trametinib; first compound 1.265 µM) was 0.0838, the relative viability (MLN4924 + Trametinib; first compound 4 µM) was 0.0619 and the relative viability (Carboplatin + Luminespib; first compound 0.08 µM) was 0.116. The relative viability (Carboplatin + Luminespib; first compound 0.253 µM) was 0.144, the relative viability (Carboplatin + Luminespib; first compound 0.8 µM) was 0.148 and the relative viability (Carboplatin + Luminespib; first compound 2.53 µM) was 0.107. The relative viability (Carboplatin + Luminespib; first compound 8 µM) was 0.155, the relative viability (Carboplatin + Pictilisib; first compound 0.08 µM) was 0.815 and the relative viability (Carboplatin + Pictilisib; first compound 0.253 µM) was 0.744. It also gave a relative viability (Carboplatin + Pictilisib; first compound 0.8 µM) of 0.62, a relative viability (Carboplatin + Pictilisib; first compound 2.53 µM) of 0.698 and a relative viability (Carboplatin + Pictilisib; first compound 8 µM) of 0.349. It also gave a relative viability (Carboplatin + Bortezomib; first compound 0.08 µM) of 0.846, a relative viability (Carboplatin + Bortezomib; first compound 0.253 µM) of 0.845 and a relative viability (Carboplatin + Bortezomib; first compound 0.8 µM) of 0.757. It also gave a relative viability (Carboplatin + Bortezomib; first compound 2.53 µM) of 0.868 and a relative viability (Carboplatin + Bortezomib; first compound 8 µM) of 0.437.
Work on NCI-H1651 yielded a relative viability (MLN4924 + Trametinib; first compound 0.04 µM) of 0.799, a relative viability (MLN4924 + Trametinib; first compound 0.1265 µM) of 0.853 and a relative viability (MLN4924 + Trametinib; first compound 0.4 µM) of 0.81. It also gave a relative viability (MLN4924 + Trametinib; first compound 1.265 µM) of 0.512, a relative viability (MLN4924 + Trametinib; first compound 4 µM) of 0.185 and a relative viability (Carboplatin + Luminespib; first compound 0.08 µM) of 0.829. The relative viability (Carboplatin + Luminespib; first compound 0.253 µM) was 0.782, the relative viability (Carboplatin + Luminespib; first compound 0.8 µM) was 0.627 and the relative viability (Carboplatin + Luminespib; first compound 2.53 µM) was 0.424. It also gave a relative viability (Carboplatin + Luminespib; first compound 8 µM) of 0.229, a relative viability (Carboplatin + Pictilisib; first compound 0.08 µM) of 0.681 and a relative viability (Carboplatin + Pictilisib; first compound 0.253 µM) of 0.498. The relative viability (Carboplatin + Pictilisib; first compound 0.8 µM) was 0.644, the relative viability (Carboplatin + Pictilisib; first compound 2.53 µM) was 0.452 and the relative viability (Carboplatin + Pictilisib; first compound 8 µM) was 0.411. The relative viability (Carboplatin + Bortezomib; first compound 0.08 µM) was 0.92, the relative viability (Carboplatin + Bortezomib; first compound 0.253 µM) was 0.967 and the relative viability (Carboplatin + Bortezomib; first compound 0.8 µM) was 0.927. The relative viability (Carboplatin + Bortezomib; first compound 2.53 µM) was 0.872 and the relative viability (Carboplatin + Bortezomib; first compound 8 µM) was 0.761.
In the case of HOP-62, the relative viability (MLN4924 + Trametinib; first compound 0.04 µM) is reported as 0.432, the relative viability (MLN4924 + Trametinib; first compound 0.1265 µM) is reported as 0.567 and the relative viability (MLN4924 + Trametinib; first compound 0.4 µM) is reported as 0.369. It also gave a relative viability (MLN4924 + Trametinib; first compound 1.265 µM) of 0.103, a relative viability (MLN4924 + Trametinib; first compound 4 µM) of 0.0823 and a relative viability (Carboplatin + Luminespib; first compound 0.08 µM) of 0.957. It also gave a relative viability (Carboplatin + Luminespib; first compound 0.253 µM) of 0.876, a relative viability (Carboplatin + Luminespib; first compound 0.8 µM) of 0.819 and a relative viability (Carboplatin + Luminespib; first compound 2.53 µM) of 0.799. For the same cell line, the relative viability (Carboplatin + Luminespib; first compound 8 µM) was 0.719, the relative viability (Carboplatin + Pictilisib; first compound 0.08 µM) was 0.527 and the relative viability (Carboplatin + Pictilisib; first compound 0.253 µM) was 0.747. For the same cell line, the relative viability (Carboplatin + Pictilisib; first compound 0.8 µM) was 0.663, the relative viability (Carboplatin + Pictilisib; first compound 2.53 µM) was 0.64 and the relative viability (Carboplatin + Pictilisib; first compound 8 µM) was 0.65. For the same cell line, the relative viability (Carboplatin + Bortezomib; first compound 0.08 µM) was 0.922, the relative viability (Carboplatin + Bortezomib; first compound 0.253 µM) was 0.87 and the relative viability (Carboplatin + Bortezomib; first compound 0.8 µM) was 0.593. For the same cell line, the relative viability (Carboplatin + Bortezomib; first compound 2.53 µM) was 0.668 and the relative viability (Carboplatin + Bortezomib; first compound 8 µM) was 0.603.
HCC-44 was tested, and the relative viability (MLN4924 + Trametinib; first compound 0.04 µM) was 0.962, the relative viability (MLN4924 + Trametinib; first compound 0.1265 µM) was 0.844 and the relative viability (MLN4924 + Trametinib; first compound 0.4 µM) was 0.814. It also gave a relative viability (MLN4924 + Trametinib; first compound 1.265 µM) of 0.447, a relative viability (MLN4924 + Trametinib; first compound 4 µM) of 0.368 and a relative viability (Carboplatin + Luminespib; first compound 0.08 µM) of 1.16. The relative viability (Carboplatin + Luminespib; first compound 0.253 µM) was 0.755, the relative viability (Carboplatin + Luminespib; first compound 0.8 µM) was 0.406 and the relative viability (Carboplatin + Luminespib; first compound 2.53 µM) was 0.305. For the same cell line, the relative viability (Carboplatin + Luminespib; first compound 8 µM) was 0.31, the relative viability (Carboplatin + Pictilisib; first compound 0.08 µM) was 0.577 and the relative viability (Carboplatin + Pictilisib; first compound 0.253 µM) was 0.552. The relative viability (Carboplatin + Pictilisib; first compound 0.8 µM) was 0.666, the relative viability (Carboplatin + Pictilisib; first compound 2.53 µM) was 0.554 and the relative viability (Carboplatin + Pictilisib; first compound 8 µM) was 0.592. For the same cell line, the relative viability (Carboplatin + Bortezomib; first compound 0.08 µM) was 0.968, the relative viability (Carboplatin + Bortezomib; first compound 0.253 µM) was 0.882 and the relative viability (Carboplatin + Bortezomib; first compound 0.8 µM) was 0.833. The relative viability (Carboplatin + Bortezomib; first compound 2.53 µM) was 0.864 and the relative viability (Carboplatin + Bortezomib; first compound 8 µM) was 0.785.
For HCC-15, the relative viability (MLN4924 + Trametinib; first compound 0.04 µM) was 0.362, the relative viability (MLN4924 + Trametinib; first compound 0.1265 µM) was 0.279 and the relative viability (MLN4924 + Trametinib; first compound 0.4 µM) was 0.191. It also gave a relative viability (MLN4924 + Trametinib; first compound 1.265 µM) of 0.105, a relative viability (MLN4924 + Trametinib; first compound 4 µM) of 0.106 and a relative viability (Carboplatin + Luminespib; first compound 0.08 µM) of 0.434. For the same cell line, the relative viability (Carboplatin + Luminespib; first compound 0.253 µM) was 0.302, the relative viability (Carboplatin + Luminespib; first compound 0.8 µM) was 0.177 and the relative viability (Carboplatin + Luminespib; first compound 2.53 µM) was 0.306. It also gave a relative viability (Carboplatin + Luminespib; first compound 8 µM) of 0.42, a relative viability (Carboplatin + Pictilisib; first compound 0.08 µM) of 0.781 and a relative viability (Carboplatin + Pictilisib; first compound 0.253 µM) of 0.715. It also gave a relative viability (Carboplatin + Pictilisib; first compound 0.8 µM) of 0.749, a relative viability (Carboplatin + Pictilisib; first compound 2.53 µM) of 0.702 and a relative viability (Carboplatin + Pictilisib; first compound 8 µM) of 0.498. It also gave a relative viability (Carboplatin + Bortezomib; first compound 0.08 µM) of 1.1, a relative viability (Carboplatin + Bortezomib; first compound 0.253 µM) of 1.05 and a relative viability (Carboplatin + Bortezomib; first compound 0.8 µM) of 0.999. The relative viability (Carboplatin + Bortezomib; first compound 2.53 µM) was 0.914 and the relative viability (Carboplatin + Bortezomib; first compound 8 µM) was 0.795.
In the case of NCI-H460, the relative viability (MLN4924 + Trametinib; first compound 0.04 µM) is reported as 0.3, the relative viability (MLN4924 + Trametinib; first compound 0.1265 µM) is reported as 0.205 and the relative viability (MLN4924 + Trametinib; first compound 0.4 µM) is reported as 0.332. The relative viability (MLN4924 + Trametinib; first compound 1.265 µM) was 0.0885, the relative viability (MLN4924 + Trametinib; first compound 4 µM) was 0.0366 and the relative viability (Carboplatin + Luminespib; first compound 0.08 µM) was 0.0398. For the same cell line, the relative viability (Carboplatin + Luminespib; first compound 0.253 µM) was 0.0303, the relative viability (Carboplatin + Luminespib; first compound 0.8 µM) was 0.0396 and the relative viability (Carboplatin + Luminespib; first compound 2.53 µM) was 0.0341. For the same cell line, the relative viability (Carboplatin + Luminespib; first compound 8 µM) was 0.0233, the relative viability (Carboplatin + Pictilisib; first compound 0.08 µM) was 0.379 and the relative viability (Carboplatin + Pictilisib; first compound 0.253 µM) was 0.356. For the same cell line, the relative viability (Carboplatin + Pictilisib; first compound 0.8 µM) was 0.352, the relative viability (Carboplatin + Pictilisib; first compound 2.53 µM) was 0.321 and the relative viability (Carboplatin + Pictilisib; first compound 8 µM) was 0.213. For the same cell line, the relative viability (Carboplatin + Bortezomib; first compound 0.08 µM) was 1.22, the relative viability (Carboplatin + Bortezomib; first compound 0.253 µM) was 1.06 and the relative viability (Carboplatin + Bortezomib; first compound 0.8 µM) was 0.895. The relative viability (Carboplatin + Bortezomib; first compound 2.53 µM) was 0.812 and the relative viability (Carboplatin + Bortezomib; first compound 8 µM) was 0.174.
In the case of NCI-H1299, the relative viability (Carboplatin + Pictilisib; first compound 0.08 µM) is reported as 0.785, the relative viability (Carboplatin + Pictilisib; first compound 0.253 µM) is reported as 0.663 and the relative viability (Carboplatin + Pictilisib; first compound 0.8 µM) is reported as 0.62. It also gave a relative viability (Carboplatin + Pictilisib; first compound 2.53 µM) of 0.739, a relative viability (Carboplatin + Pictilisib; first compound 8 µM) of 0.617 and a relative viability (Carboplatin + Bortezomib; first compound 0.08 µM) of 1.07. The relative viability (Carboplatin + Bortezomib; first compound 0.253 µM) was 1.01, the relative viability (Carboplatin + Bortezomib; first compound 0.8 µM) was 1.07 and the relative viability (Carboplatin + Bortezomib; first compound 2.53 µM) was 0.982. The relative viability (Carboplatin + Bortezomib; first compound 8 µM) was 0.902.
